Experimental data taken from US20160220567A1, “COMPOSITION FOR TREATING OR PREVENTING BONE DISEASES, COMPRISING HALOFUGINONE AS ACTIVE INGREDIENT” (THE CATHOLIC UNIVERSITY OF KOREA INDUSTRY-ACADEMIC …, priority 2013, published 2016).

Assays:
[1] = test system: anti-CII-specific IgG, IgG1, and IgG2a; assay: Type II collagen-specific IgG, IgG1 and IgG2a in sera by ELISA; assay type: in vivo, mouse; conditions: CIA mice, sera 4 weeks after injection, FIG. 1D
Experimental: (§1) For the construction of a mouse model with collagen-induced arthritis (hereinafter, referred to as “CIA”), a 6-week old male DBA/1J mouse was subjected to primary immunization by intradermal injection after mixing the bovine type II collagen (hereinafter, referred to as “CII”) and complete Freud's adjuvant (CFA) in an amount of 100 μL, respectively. After a week thereafter, halofuginone was injected intraperitoneally at 3 day intervals at a concentration of 100 μg/kg and 500 μg/kg, respectively (9 weeks).
The concentrations of murine anti-CII-specific IgG, IgG1, and IgG2a were measured by ELISA method by collecting sera from a mouse with arthritis 4 weeks after injecting the mouse with halofuginone (Bethyl Lab Co., Montgomery, Tex., USA). The group treated with a solution in which DMSO was diluted in saline was used as the control group.
The method of measuring the anti-CII-specific IgG, IgG1, and IgG2a antibodies is as follows. The CII was diluted in 0.05M sodium carbonate coating buffer (pH 9.6) at a concentration of 4 μg/mL, coated onto a 96-well microtiter plate, and placed at 4° C. for 18 hours. After removing the coated solution, for the inhibition of non-specific binding, TBS (pH 8.0) containing 1% bovine serum albumin (BSA: Amre-sco, solon, Ohio, USA) was added in an amount of 200 μL thereto and reacted at room temperature for 1 hour. For the measurement of anti-CII-specific IgG, IgG1, and IgG2a antibodies, the specimen was diluted at a 1:1,000 ratio, and in particular, TBS (pH 8.0) containing 1% BSA and 0.05% Tween 20 (Amresco) was used as the diluted solution. Then, the sera sample diluted in advance was added to each well in an amount of 50 μL and reacted at room temperature for 1 hour. […] The absorbance of the resultant was measured at 450 nm using the ELISA reader and the result of antibody measurement was indicated by absorbance itself.

[2] = test system: Th17- and Treg cells in splenocytes; assay: Th17 and Treg cells, pSTAT3 and pSTAT5 in splenocytes of CIA mice by immunostaining and confocal microscope; assay type: in vivo, mouse
Experimental: as §1
To examine the effect of halofuginone treatment in an animal model on Th17 and Treg factors, the measurement was performed using a confocal microscope after the immunostaining. Specifically, the spleens of the mice in the experimental group and control group in Examples were collected and embedded with an OCT compound, and the tissues rapidly cooled using liquid nitrogen were sliced into a thickness of 7 μm using a cryo microtome, and attached to slides. The sliced sections attached to the slides were fixed with acetone, and non-specific binding was blocked by reacting with 10% normal goat serum for 30 minutes. The first antibodies, i.e., FITC-labeled anti-Foxp3 Ab, PElabeled anti-IL-17 Ab APC-labeled anti-CD4 Ab, Allophycocyanin-labeled anti-CD25 Ab (Biolegend), biotinylated anti-CD4 Ab (BD Biosciences, San Jose, Calif., USA), were diluted in PBS (pH 7.5) at a 1:100 ratio and reacted at 4° C. overnight. On the next day, the resultant was washed with PBS and reacted with streptavidin cy-3 at room temperature for 2 hours. The stained tissues were analyzed using a confocal microscope (LSM 510 Meta. Zeiss, Gottingen, Germany), and the number of IL-17+ cells and Foxp3+ cells were scored under a microscopic observation, and the results are shown in graphs. Meanwhile, pSTAT3 and pSTAT5 were immunostained in the same manner as described above and the measurement was performed using a confocal microscope, and in particular, PE-conjugated anti-phospho-Stat3 (Y705 and S727; 1:50), and Alexa Fluor 488-conjugated anti-phospho-Stat5 (Y694; 1:100) (all from BD Biosciences) antibodies were used.

IL-17 and Foxp3 genes = assay: Expression of IL-17 and Foxp3 genes in splenocytes and draining lymph nodes by RT-PCR; assay type: in vivo, mouse; conditions: mRNA, splenocytes and draining lymph nodes of CIA mice, FIG. 2C
Experimental: as §1
To examine the effect of halofuginone treatment in an animal model, the RNA in the splenocytes and draining lymph nodes were extracted using the Trizol reagent, and the expression of IL-17and Foxp3 genes was confirmed by RT-PCR.
The real-time PCR was performed using the LightCycler 2.0 System Instrument and the reaction compounds were prepared by mixing 1 μL of each cDNA, 10 μL of premix Ex Taq as an enzyme for the initiation, and each primer pair to a final volume of 20 μL using distilled water. […] The values of cycle threshold (Ct) were analyzed and the amount of mRNA expression for each target was indicated in terms of the amount of beta-actin mRNA expression and the relative quantity. […]

[3] = test system: osteoclasts from mononuclear cells of human peripheral blood; assay: Bone resorption potential by osteoclasts in human cells; assay type: cell-based; conditions: FIG. 6D
Experimental: To examine the effect of halofuginone on the bone resorption potential by osteoclasts, murine bone marrow cells were cultured in Dentine slice, and the cultured cells were stimulated with M-CSF, RANKL, and halofuginone, and cultured for 21 additional days. Then, the cells were removed using 5% sodium hypochlorite solution, subjected to Hematoxylin staining, and the bone resorption lacunae formed by the bone resorption of osteoclasts were photographed.
The effect of halofuginone on the bone resorption potential by osteoclasts was observed using the mononuclear cells of human peripheral blood, in the same manner as described in Example <2-7>.

[4] = CD4+ cells of splenocytes of CIA mice, immunostaining
[5] = splenocytes of CIA mice injected with halofuginone, FIG. 2A

With O=C(C[C@H]1NCCC[C@@H]1O)Cn1cnc2cc(Br)c(Cl)cc2c1=O (racemic) [halofuginone] as the molecule, how does the “concentration of IgG1 within the sera” value [1] read?
The value was “significantly decreased”.

And the “concentration of IgG2a within the sera” value [1]?
The value was “significantly decreased”.

And the “concentration of IgG within the sera” value [1]?
The value was “significantly decreased”.

And the “expression of pSTAT3” value [2, 4]?
Its value is “decreased”.

What about the “expression of pSTAT5” value [2, 4] of the same molecule?
The value was “increased”.

What about the “number of Th17 cells” value [2, 5] of the same molecule?
The value was “decreased”.

And the “number of Treg cells” value [2, 5]?
The value was “increased”.

And the “expression of Foxp3” value (IL-17 and Foxp3 genes)?
The value was “increased”.

And the “expression of IL-17” value (IL-17 and Foxp3 genes)?
Its value is “decreased”.

And the bone resorption potential [3]?
Its bone resorption potential is “significantly reduced”.
